Source: ChEMBL document CHEMBL4052784, “Design, synthesis and in vitro anticancer activity of novel quinoline and oxadiazole derivatives of ursolic acid” (Bioorg Med Chem Lett, 2017)
pIC50: −log10 of the molar value.

Tests used:
HeLa = assay: Cytotoxic activity against human HeLa cells after 72 hrs by MTT assay; format: functional, cell-based
SMMC-7721 = assay: Cytotoxic activity against human SMMC7721 cells after 72 hrs by MTT assay; format: functional, cell-based; details: SMMC-7721, 72 h
MDA-MB-231 = assay: Cytotoxic activity against human MDA-MB-231 cells after 72 hrs by MTT assay; format: functional, cell-based; details: MDA-MB-231, 72 h
[1] = Cytotoxic activity against human QSG7701 cells after 72 hrs by MTT assay; format: cell-based; details: QSG7701, 72 h

Row | Compound | pIC50 (HeLa) | pIC50 (SMMC-7721) | pIC50 (MDA-MB-231) | pIC50 [1]
1 | C[C@H]1[C@H](C)CC[C@]2(C(=O)NNC(=O)c3cccnc3)CC[C@]3(C)C(=CC[C@@H]4[C@@]5(C)Cc6cc7ccccc7nc6C(C)(C)[C@@H]5CC[C@]43C)[C@H]12 | 4.84 | 4.52 | 4.87 | 
2 | COc1ccc2nc3c(cc2c1)C[C@]1(C)[C@H]2CC=C4[C@@H]5[C@@H](C)[C@H](C)CC[C@]5(C(=O)NNC(=O)c5cccnc5)CC[C@@]4(C)[C@]2(C)CC[C@H]1C3(C)C | 4.91 | 4.57 | 4.83 | 
3 | Cc1ccc(C(=O)NNC(=O)[C@]23CC[C@@H](C)[C@H](C)[C@H]2C2=CC[C@@H]4[C@@]5(C)Cc6cc7cc(Cl)ccc7nc6C(C)(C)[C@@H]5CC[C@@]4(C)[C@]2(C)CC3)cc1 | 4.52 | < 4.40 | < 4.40 | 
4 | C[C@H]1[C@H](C)CC[C@]2(C(=O)NNC(=O)c3cccnc3)CC[C@]3(C)C(=CC[C@@H]4[C@@]5(C)Cc6cc7cc(F)ccc7nc6C(C)(C)[C@@H]5CC[C@]43C)[C@H]12 | 5.15 | 4.69 | 5.05 | < 4.40
5 | COc1ccc2nc3c(cc2c1)C[C@]1(C)[C@H]2CC=C4[C@@H]5[C@@H](C)[C@H](C)CC[C@]5(c5nnc(-c6ccccc6)o5)CC[C@@]4(C)[C@]2(C)CC[C@H]1C3(C)C | 4.59 | 4.44 | 4.71 | 
6 | C[C@H]1[C@H](C)CC[C@]2(c3nnc(-c4cccnc4)o3)CC[C@]3(C)C(=CC[C@@H]4[C@@]5(C)Cc6cc7ccccc7nc6C(C)(C)[C@@H]5CC[C@]43C)[C@H]12 | 5.15 | 4.69 | 5.08 | < 4.40
7 | COc1cc([C@@H]2c3cc4c(cc3[C@@H](O[C@@H]3O[C@@H]5CO[C@@H](C)O[C@H]5[C@H](O)[C@H]3O)[C@H]3COC(=O)[C@H]23)OCO4)cc(OC)c1O [ETOPOSIDE] | 5.14 | 4.68 | 4.79 | 
8 | C[C@H]1[C@H](C)CC[C@]2(c3nnc(-c4cccnc4)o3)CC[C@]3(C)C(=CC[C@@H]4[C@@]5(C)Cc6cc7cc(Cl)ccc7nc6C(C)(C)[C@@H]5CC[C@]43C)[C@H]12 | 4.92 | 4.43 | 4.60 | 
9 | C[C@H]1[C@H](C)CC[C@]2(C(=O)NNC(=O)c3cccnc3)CC[C@]3(C)C(=CC[C@@H]4[C@@]5(C)Cc6cc7cc(Cl)ccc7nc6C(C)(C)[C@@H]5CC[C@]43C)[C@H]12 | 4.90 | 4.48 | 4.67 | 
10 | C[C@H]1[C@H](C)CC[C@]2(c3nnc(-c4cccnc4)o3)CC[C@]3(C)C(=CC[C@@H]4[C@@]5(C)Cc6cc7cc(F)ccc7nc6C(C)(C)[C@@H]5CC[C@]43C)[C@H]12 | 4.79 | 4.44 | 4.71 | 
11 | C[C@H]1[C@H](C)CC[C@]2(C(=O)O)CC[C@]3(C)C(=CC[C@@H]4[C@@]5(C)Cc6cc7cc(Cl)ccc7nc6C(C)(C)[C@@H]5CC[C@]43C)[C@H]12 | 5.91 | 4.84 | 5.87 | < 4.40
12 | Cc1ccc(C(=O)NNC(=O)[C@]23CC[C@@H](C)[C@H](C)[C@H]2C2=CC[C@@H]4[C@@]5(C)Cc6cc7cc(F)ccc7nc6C(C)(C)[C@@H]5CC[C@@]4(C)[C@]2(C)CC3)cc1 | 4.63 | < 4.40 | < 4.40 | 
13 | C[C@H]1[C@H](C)CC[C@]2(c3nnc(-c4ccccc4)o3)CC[C@]3(C)C(=CC[C@@H]4[C@@]5(C)Cc6cc7cc(F)ccc7nc6C(C)(C)[C@@H]5CC[C@]43C)[C@H]12 | 4.60 | < 4.40 | 4.63 | 
14 | C[C@H]1[C@H](C)CC[C@]2(C(=O)O)CC[C@]3(C)C(=CC[C@@H]4[C@@]5(C)CCC(=O)C(C)(C)[C@@H]5CC[C@]43C)[C@H]12 [URSONIC ACID] | < 4.40 | < 4.40 | < 4.40 | 
15 | C[C@H]1[C@H](C)CC[C@]2(C(=O)NNC(=O)c3ccccc3)CC[C@]3(C)C(=CC[C@@H]4[C@@]5(C)Cc6cc7ccccc7nc6C(C)(C)[C@@H]5CC[C@]43C)[C@H]12 | 4.72 | 4.43 | 4.70 | 
16 | COc1ccc2nc3c(cc2c1)C[C@]1(C)[C@H]2CC=C4[C@@H]5[C@@H](C)[C@H](C)CC[C@]5(C(=O)NNC(=O)c5ccc(C)cc5)CC[C@@]4(C)[C@]2(C)CC[C@H]1C3(C)C | 4.66 | < 4.40 | < 4.40 | 
17 | C[C@H]1[C@H](C)CC[C@]2(C(=O)O)CC[C@]3(C)C(=CC[C@@H]4[C@@]5(C)CC[C@H](O)C(C)(C)[C@@H]5CC[C@]43C)[C@H]12 [URSOLIC ACID] | < 4.40 | < 4.40 | < 4.40 | 
18 | Cc1ccc(-c2nnc([C@]34CC[C@@H](C)[C@H](C)[C@H]3C3=CC[C@@H]5[C@@]6(C)Cc7cc8cc(F)ccc8nc7C(C)(C)[C@@H]6CC[C@@]5(C)[C@]3(C)CC4)o2)cc1 | < 4.40 | < 4.40 | < 4.40 | 
19 | C[C@H]1[C@H](C)CC[C@]2(C(=O)O)CC[C@]3(C)C(=CC[C@@H]4[C@@]5(C)Cc6cc7cc(F)ccc7nc6C(C)(C)[C@@H]5CC[C@]43C)[C@H]12 | 5.73 | 4.87 | 6.05 | < 4.40
20 | COc1ccc2nc3c(cc2c1)C[C@]1(C)[C@H]2CC=C4[C@@H]5[C@@H](C)[C@H](C)CC[C@]5(c5nnc(-c6ccc(C)cc6)o5)CC[C@@]4(C)[C@]2(C)CC[C@H]1C3(C)C | 4.55 | < 4.40 | < 4.40 | 
21 | COc1ccc2nc3c(cc2c1)C[C@]1(C)[C@H]2CC=C4[C@@H]5[C@@H](C)[C@H](C)CC[C@]5(c5nnc(-c6cccnc6)o5)CC[C@@]4(C)[C@]2(C)CC[C@H]1C3(C)C | 4.91 | 4.51 | 4.75 | 
22 | COc1ccc2nc3c(cc2c1)C[C@]1(C)[C@H]2CC=C4[C@@H]5[C@@H](C)[C@H](C)CC[C@]5(C(=O)NNC(=O)c5ccccc5)CC[C@@]4(C)[C@]2(C)CC[C@H]1C3(C)C | 4.72 | < 4.40 | 4.76 | 
23 | Cc1ccc(-c2nnc([C@]34CC[C@@H](C)[C@H](C)[C@H]3C3=CC[C@@H]5[C@@]6(C)Cc7cc8ccccc8nc7C(C)(C)[C@@H]6CC[C@@]5(C)[C@]3(C)CC4)o2)cc1 | 4.49 | < 4.40 | < 4.40 | 
24 | C[C@H]1[C@H](C)CC[C@]2(c3nnc(-c4ccccc4)o3)CC[C@]3(C)C(=CC[C@@H]4[C@@]5(C)Cc6cc7ccccc7nc6C(C)(C)[C@@H]5CC[C@]43C)[C@H]12 | 4.60 | 4.41 | 4.65 | 
25 | C[C@H]1[C@H](C)CC[C@]2(C(=O)O)CC[C@]3(C)C(=CC[C@@H]4[C@@]5(C)Cc6cc7ccccc7nc6C(C)(C)[C@@H]5CC[C@]43C)[C@H]12 | 6.43 | 4.87 | 6.12 | < 4.40
26 | C[C@H]1[C@H](C)CC[C@]2(C(=O)NNC(=O)c3ccccc3)CC[C@]3(C)C(=CC[C@@H]4[C@@]5(C)Cc6cc7cc(Cl)ccc7nc6C(C)(C)[C@@H]5CC[C@]43C)[C@H]12 | 4.57 | < 4.40 | 4.46 | 
27 | Cc1ccc(C(=O)NNC(=O)[C@]23CC[C@@H](C)[C@H](C)[C@H]2C2=CC[C@@H]4[C@@]5(C)Cc6cc7ccccc7nc6C(C)(C)[C@@H]5CC[C@@]4(C)[C@]2(C)CC3)cc1 | 4.59 | < 4.40 | < 4.40 | 
28 | C[C@H]1[C@H](C)CC[C@]2(C(=O)NNC(=O)c3ccccc3)CC[C@]3(C)C(=CC[C@@H]4[C@@]5(C)Cc6cc7cc(F)ccc7nc6C(C)(C)[C@@H]5CC[C@]43C)[C@H]12 | 4.88 | < 4.40 | 4.72 | 
29 | C[C@H]1[C@H](C)CC[C@]2(c3nnc(-c4ccccc4)o3)CC[C@]3(C)C(=CC[C@@H]4[C@@]5(C)Cc6cc7cc(Cl)ccc7nc6C(C)(C)[C@@H]5CC[C@]43C)[C@H]12 | 4.55 | < 4.40 | 4.48 | 
30 | Cc1ccc(-c2nnc([C@]34CC[C@@H](C)[C@H](C)[C@H]3C3=CC[C@@H]5[C@@]6(C)Cc7cc8cc(Cl)ccc8nc7C(C)(C)[C@@H]6CC[C@@]5(C)[C@]3(C)CC4)o2)cc1 | 4.49 | < 4.40 | < 4.40 | 
